For this experiment, the system named is P388 leukemia ip, CD2F1 mice, survival T/C. The experiment in a line: NCI In Vivo Anticancer Drug Screen. Data for tumor model P388 Leukemia (intraperitoneal) in CD2F1 (CDF1) mice. The conditions noted are these: endpoint: median survival time, higher = longer survival. Summed up: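 Mice carrying the transplanted tumor received test compound or vehicle. Survival was recorded in each group, and the value is the treated-group measurement divided by that of the vehicle-treated control group.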

[1] abbreviates: dose: 100.0 mg/kg/injection, schedule: Q01DX001 (ip), vehicle: Klucel (hydroxypropylcellulose) (HPC).
Where [2] appears, read: dose: 200.0 mg/kg/injection, schedule: Q01DX001 (ip), vehicle: Klucel (hydroxypropylcellulose) (HPC).
[3] abbreviates: dose: 400.0 mg/kg/injection, schedule: Q01DX001 (ip), vehicle: Klucel (hydroxypropylcellulose) (HPC).
Where [4] appears, read: dose: 60.0 mg/kg/injection, schedule: Q01DX005 (ip), vehicle: saline with Tween-80.
The mark [5] stands for this setting: dose: 120.0 mg/kg/injection, schedule: Q01DX005 (ip), vehicle: saline with Tween-80.
The mark [6] stands for this setting: dose: 240.0 mg/kg/injection, schedule: Q01DX005 (ip), vehicle: saline with Tween-80.
Where [7] appears, read: dose: 100.0 mg/kg/injection, schedule: Q04DX003 (ip), vehicle: saline.
Setting [8] is: dose: 200.0 mg/kg/injection, schedule: Q04DX003 (ip), vehicle: saline.
Where [9] appears, read: dose: 25.0 mg/kg/injection, schedule: Q01DX009 (ip), vehicle: saline with Tween-80.
The mark [10] stands for this setting: dose: 50.0 mg/kg/injection, schedule: Q01DX009 (ip), vehicle: saline with Tween-80.
Setting [11] is: dose: 50.0 mg/kg/injection, schedule: Q04DX003 (ip), vehicle: saline with Tween-80.
[12] abbreviates: dose: 50.0 mg/kg/injection, schedule: Q01DX005 (ip), vehicle: Klucel (hydroxypropylcellulose) (HPC).
Where [13] appears, read: dose: 100.0 mg/kg/injection, schedule: Q01DX005 (ip), vehicle: Klucel (hydroxypropylcellulose) (HPC).
[14] abbreviates: dose: 100.0 mg/kg/injection, schedule: Q01DX009 (ip), vehicle: Klucel (hydroxypropylcellulose) (HPC).
Where [15] appears, read: dose: 50.0 mg/kg/injection, schedule: Q01DX009 (ip), vehicle: Klucel (hydroxypropylcellulose) (HPC).
Setting [16] is: dose: 200.0 mg/kg/injection, schedule: Q01DX009 (ip), vehicle: Klucel (hydroxypropylcellulose) (HPC).
The mark [17] stands for this setting: dose: 100.0 mg/kg/injection, schedule: Q01DX009 (ip), vehicle: saline with Tween-80.
[18] abbreviates: dose: 200.0 mg/kg/injection, schedule: Q01DX009 (ip), vehicle: saline with Tween-80.
Where [19] appears, read: dose: 50.0 mg/kg/injection, schedule: Q01DX005 (ip), vehicle: saline with Tween-80.
The mark [20] stands for this setting: dose: 100.0 mg/kg/injection, schedule: Q01DX005 (ip), vehicle: saline with Tween-80.
Where [21] appears, read: dose: 200.0 mg/kg/injection, schedule: Q01DX005 (ip), vehicle: saline with Tween-80.
The mark [22] stands for this setting: dose: 200.0 mg/kg/injection, schedule: Q01DX005 (ip), vehicle: Klucel (hydroxypropylcellulose) (HPC).

Where “and” joins values, the source holds several entries; their conditions need not be identical. Equal values may be shown once. Inconclusive results and toxic doses are left out.

`Cc1ccc(S(=O)(=O)N/N=C/c2c(Br)nc3n2CCS3)cc1`: the T/C is, setting by setting: under setting [1], 94 % of control; under setting [2], 89 % of control; under setting [3], 92 % of control.
Take `CCOC(C)n1c(C)nc2ccccc21` (stereo unspecified): the T/C was 99 % of control (dose: 100.0 mg/kg/injection, schedule: Q04DX002 (ip), vehicle: saline); 101 % of control (dose: 200.0 mg/kg/injection, schedule: Q04DX002 (ip), vehicle: saline); 97 % of control (dose: 400.0 mg/kg/injection, schedule: Q04DX002 (ip), vehicle: saline).
On to `COc1nc2c(ccn2C2OCC(OC(C)=O)C(OC(C)=O)C2OC(C)=O)c(=O)n1C` (stereo unspecified), for which the T/C was 100 % of control under setting [4], 97 % of control under setting [5] and 100 % of control under setting [6].
For `CSc1nc2c(=O)[nH]cnc2s1`, the T/C reads like this: under setting [4], 105 % of control; under setting [5], 102 % of control; under setting [6], 96 % of control.
In the case of `CC(C)(C)OC(=O)NC1CCC2CCCCC2C1` (stereo unspecified), the T/C reads like this: under setting [7], 100 % of control; under setting [8], 104 % of control; (dose: 400.0 mg/kg/injection, schedule: Q04DX003 (ip), vehicle: saline) 100 % of control.
`O=S1(=O)c2ccccc2N(c2ccccc2)c2nnnn21`: the T/C reads like this: under setting [4], 88 % of control; under setting [5], 96 % of control; under setting [6], 99 % of control.
In the case of `O=C(O)c1ccccc1Nc1cccc([N+](=O)[O-])c1`, the T/C reads like this: (dose: 25.0 mg/kg/injection, schedule: Q04DX003 (ip), vehicle: saline) 99 % of control; (dose: 50.0 mg/kg/injection, schedule: Q04DX003 (ip), vehicle: saline) 114 % of control; under setting [7], 114 % of control; under setting [8], 112 % of control.
As for `C/C(=N\N=C(N)N)c1cccc(/C(C)=N/N=C(N)N)n1`, the T/C (dose: 6.25 mg/kg/injection, schedule: Q01DX009 (ip), vehicle: saline with Tween-80) is 101 % of control; the T/C under setting [9] is 110 % of control; the T/C under setting [10] is 90 % of control.
Turning to `CN(C)N=Nc1ccc(S(=O)(=O)Nc2ncccn2)cc1`, the T/C by setting is: (dose: 8.75 mg/kg/injection, schedule: Q01DX009 (ip), vehicle: saline with Tween-80) 107 % of control; (dose: 35.0 mg/kg/injection, schedule: Q01DX009 (ip), vehicle: saline with Tween-80) 160 % of control; under setting [11], 96 % of control; (dose: 400.0 mg/kg/injection, schedule: Q04DX003 (ip), vehicle: saline with Tween-80) 111 % of control and 92 % of control.
With `COc1cc(C(O)(CCN2CCOCC2)c2ccc3c(c2)OCO3)cc(OC)c1OC` (stereo unspecified), the T/C by setting is: under setting [12], 91 % of control; under setting [13], 87 % of control.
On to `COc1ccc(/C(=C(\c2ccccc2)[N+](=O)[O-])c2ccc(OCCN3CCCC3)cc2)cc1`, for which the T/C was 104 % of control under setting [9] and 100 % of control under setting [10].
In the case of `COC1=CC(=O)C([C@@H]2COc3cc(O)ccc3C2)=CC1=O`, the T/C reads like this: (dose: 3.75 mg/kg/injection, schedule: Q01DX009 (ip), vehicle: Klucel (hydroxypropylcellulose) (HPC)) 95 % of control; (dose: 7.5 mg/kg/injection, schedule: Q01DX009 (ip), vehicle: Klucel (hydroxypropylcellulose) (HPC)) 99 % of control; (dose: 15.0 mg/kg/injection, schedule: Q01DX009 (ip), vehicle: Klucel (hydroxypropylcellulose) (HPC)) 95 % of control; (dose: 30.0 mg/kg/injection, schedule: Q01DX009 (ip), vehicle: Klucel (hydroxypropylcellulose) (HPC)) 98 % of control.
With `CSc1cccc(NC(=O)OCCOc2ccc(-c3ccccc3)cc2)c1`, the T/C under setting [14] was 87 % of control.
`C/C(=C\c1ccccc1)C1C(C#N)C(=O)NC(=O)C1C#N` (stereo unspecified): the T/C under setting [15] is 101 % of control, the T/C under setting [14] is 105 % of control and the T/C under setting [16] was 106 % of control.
In the case of `CN1C(=O)Cn2c(nn(Cc3ccccc3)c(=O)c2=O)-c2cc(Cl)ccc21`, the T/C runs as follows: under setting [1], 96 % of control; under setting [2], 101 % of control; under setting [3], 99 % of control.
Consider `O=C1O/C(=C\c2ccccc2)c2c(Br)c(Br)c(Br)c(Br)c21`, for which the T/C is, setting by setting: under setting [10], 94 % of control; under setting [17], 93 % of control; under setting [18], 99 % of control; (dose: 400.0 mg/kg/injection, schedule: Q01DX009 (ip), vehicle: saline with Tween-80) 99 % of control.
Consider `COC1(c2ccc(C)cc2)OC12CCN(C)CC2` (stereo unspecified), for which the T/C is 106 % of control under setting [19], 95 % of control under setting [20] and 106 % of control under setting [21].
With `CC1=CC(C)(C)NC(=S)N1c1cccc2ccccc12`, the T/C runs as follows: under setting [9], 116 % of control; under setting [10], 103 % of control; under setting [17], 110 % of control; under setting [18], 113 % of control.
Consider `CCOC(=O)CCN1CC=CCC1`, for which the T/C by setting is: (dose: 50.0 mg/kg/injection, schedule: Q01DX005 (ip), vehicle: saline) 105 % of control; (dose: 100.0 mg/kg/injection, schedule: Q01DX005 (ip), vehicle: saline) 102 % of control; (dose: 200.0 mg/kg/injection, schedule: Q01DX005 (ip), vehicle: saline) 102 % of control.
Turning to `COc1ccc(C2CC(=O)c3c(O)cc(OC4OC(CO)C(O)C(O)C4OC4OC(C)C(O)C(O)C4O)cc3O2)cc1O` (stereo unspecified), the T/C was 102 % of control under setting [19], 100 % of control under setting [20] and 92 % of control under setting [21].
On to `COc1cc2cc(-c3cc(OC)c(OC)c(OC)c3)c3c(c2cc1OC)CNC3`, for which the T/C reads like this: (dose: 3.12 mg/kg/injection, schedule: Q04DX003 (ip), vehicle: saline with Tween-80) 100 % of control; (dose: 6.25 mg/kg/injection, schedule: Q04DX003 (ip), vehicle: saline with Tween-80) 105 % of control; (dose: 12.5 mg/kg/injection, schedule: Q04DX003 (ip), vehicle: saline with Tween-80) 100 % of control; (dose: 25.0 mg/kg/injection, schedule: Q04DX003 (ip), vehicle: saline with Tween-80) 98 % of control; under setting [11], 97 % of control.
For the molecule `CCOC(=O)NCCCBr`, the T/C is 105 % of control under setting [10], 99 % of control under setting [17] and 107 % of control under setting [18].
On to `Nc1nc2c(ncn2C2OC(CO)C(O)C2O)c(=O)[nH]1.[Cl-].[Cl-].[NH2-].[NH2-].[Pt+4]` (stereo unspecified), for which the T/C (dose: 2.0 mg/kg/injection, schedule: Q01DX009 (ip), vehicle: saline) was 118 % of control; the T/C (dose: 4.0 mg/kg/injection, schedule: Q01DX009 (ip), vehicle: saline) was 122 % of control; the T/C (dose: 8.0 mg/kg/injection, schedule: Q01DX009 (ip), vehicle: saline) was 172 % of control and 178 % of control; the T/C (dose: 16.0 mg/kg/injection, schedule: Q01DX009 (ip), vehicle: saline) is 216 % of control and 238 % of control; the T/C (dose: 32.0 mg/kg/injection, schedule: Q01DX009 (ip), vehicle: saline) was 93 % of control.
Turning to `COc1ccc(OC)c(C(N)=O)c1`, the T/C under setting [15] was 102 % of control, the T/C under setting [14] was 102 % of control and the T/C under setting [16] is 100 % of control.
Turning to `CC1CCCC2=C1C(O)c1c(N)cccc1C2O` (stereo unspecified), the T/C under setting [12] was 96 % of control, the T/C under setting [13] is 101 % of control and the T/C under setting [22] was 94 % of control.
Turning to `CCCCCCC(/C=C/c1ccccc1Cl)=N\O`, the T/C by setting is: under setting [15], 92 % of control; under setting [14], 100 % of control; under setting [16], 105 % of control.
For `CC(C)CC(NC1=CC(=O)N(c2ccccc2)C1c1ccccc1)c1nc2ccccc2[nH]1` (stereo unspecified), the T/C was 99 % of control under setting [12], 95 % of control under setting [13] and 95 % of control under setting [22].
